The text below walks through data of patent US20130172191A1, “STABLE ETHYLENE INHIBITING COMPOUNDS AND METHODS FOR THEIR PREPARATION” (priority 2002, published 2013).

Structures are written as SMILES.

The nature of data set [1]: Chemically induced release of a cyclopropene (1-methylcyclopropene) by a reducing or nucleophilic agent, GC of headspace. In kind it is physicochemical. Here is the method: (§1) Into a 50 ml Florence flask with magnetic stirring was placed 2 ml of tetrahydrofuran and 0.30 g of 1,2-diiodo-1-methylcyclopropane. […] GC method uses Varian CP-PoraBOND Q column 10 meters long 0.32 mm ID; helium carrier; initial temperature 50° C.; initial time 0 minutes; ramp rate 20° C./min; final temperature 270° C.; final time 5 minutes; injection volume 0.20 ml. The retention time of an authentic sample of 1-methylcyclopropene was 2.91 minutes. 1 ppm is easily detectable under these conditions.
Into a 100 ml Florence flask with magnetic stirring was placed 2 ml of tetrahydrofuran and 1.0 g of zinc dust. The zinc was activated with 10 drops of 1,2-dibromoethane. Then 0.34 g of 1,2-diiodo-1-methylcyclopropane was added.
Into a 100 ml Florence flask with magnetic stirring was placed 2 ml of methanol and 1.0 g of zinc dust. The zinc was activated with 10 drops of 1,2-dibromoethane. Then 0.34 g of 1,2-diiodo-1-methylcyclopropane was added.
Into a 100 ml Florence flask with magnetic stirring was placed 2 ml of tetrahydrofuran and 1.1 g of magnesium turnings. The magnesium was activated with 10 drops of 1,2-dibromoethane. Then 0.35 g of 1,2-diiodo-1-methylcyclopropane was added.
Into a 50 ml Florence flask with magnetic stirring was placed 3 g of dimethylformamide and 1.2 g of triphenylphosphine. Then 0.83 g of 1,2-diiodo-1-methylcyclopropane was added.
Into a 100 ml Florence flask with magnetic stirring was placed 2 g of dimethylformamide, 0.70 g of potassium t-butoxide, and 0.84 g of 4-methylbenzenethiol. Then 0.40 g of 1,2-diiodo-1-methylcyclopropane was added.
The polymeric reagent was prepared by slurrying 50 ml of Duolite™ GT73 (Rohm and Haas Company) and stirring for two hours with 50 ml of water and 10 g of 45% aqueous potassium hydroxide. The slurry was filtered, washed twice with water, thrice with methanol, air dried, and placed in a vacuum oven overnight. 0.54 g of this polymeric reagent was placed in a 122 ml vial and the beads were wetted with 0.10 g of 1,2-diiodo-1-methylcyclopropane in 0.70 g of methanol.

A short description of data set [2]: Control experiment: 1,2-diiodo-1-methylcyclopropane in tetrahydrofuran without reagent, GC of headspace. It counts as physicochemical. To be noted: 0.30 g in 2 ml tetrahydrofuran, no reagent, stirring 5 minutes; 1 ppm easily detectable. As to the method: as §1

As to `CC1(I)CC1I` (stereo not shown) [Example 60, 1,2-diiodo-1-methylcyclopropane], the “1-methylcyclopropene in headspace (GC analysis)” value is on record as 87567 ppm in data set [1] (4-methylbenzenethiol 0.84 g, potassium t-butoxide 0.70 g in 2 g dimethylformamide, 0.40 g precursor, 100 ml flask, 15 minutes at room temperature); 49993 ppm in data set [1] (magnesium turnings 1.1 g (activated with 1,2-dibromoethane) in 2 ml tetrahydrofuran, 0.35 g precursor, 100 ml flask, stirring 3 hours); 134 ppm in data set [1] (polymeric benzenethiol reagent (Duolite GT73, KOH treated) 0.54 g, 0.10 g precursor in 0.70 g methanol, 122 ml vial, overnight at room temperature); 10 ppm in data set [1] (triphenylphosphine 1.2 g in 3 g dimethylformamide, 0.83 g precursor, 50 ml flask, 15 minutes at room temperature); 98390 ppm in data set [1] (zinc dust 1.0 g (activated with 1,2-dibromoethane) in 2 ml methanol, 0.34 g precursor, 100 ml flask, stirring 30 minutes); 4658 ppm in data set [1] (zinc dust 1.0 g (activated with 1,2-dibromoethane) in 2 ml tetrahydrofuran, 0.34 g precursor, 100 ml flask, stirring 20 hours). Besides, in data set [2], the “1-methylcyclopropene in headspace (GC analysis)” value was “no detectable 1-methylcyclopropene”.
